Reference: ChEMBL document CHEMBL4321813, “Discovery of GSK3527497: A Candidate for the Inhibition of Transient Receptor Potential Vanilloid-4 (TRPV4)” (J Med Chem, 2019)
In brackets after ≈: the same amount, converted by molar mass.

Experiments:
[1] = target: T1, Transient receptor potential cation channel subfamily V member 4 (Homo sapiens, UniProt Q9HBA0); assay: Antagonist activity at human TRPV4
[2] = Solubility of the compound in FaSSIF measured after 4 hrs; format: physicochemical
[3] = Volume of distribution at steady state in Sprague-Dawley rat at 1 mg/kg, iv administered as 30 mins infusion or 1 to 2 mg/kg, po by HPLC-MS/MS analysis; format: ADME, organism-based; conditions: in vivo, read-out: Vdss
[4] = Unbound volume of distribution at steady state in Sprague-Dawley rat at 1 mg/kg, iv administered as 30 mins infusion or 1 to 2 mg/kg, po by HPLC-MS/MS analysis; format: ADME, organism-based; conditions: in vivo, 0.5 h
[5] = Ratio of Cmax to Cmin in human; format: ADME
[6] = Unbound AUC in human; format: ADME
[7] = Dose normalized AUC in Sprague-Dawley rat at 100 mg/kg, po using crystalline solid form of sample by HPLC-MS/MS analysis; format: ADME, organism-based; conditions: in vivo
[8] = Oral bioavailability in Sprague-Dawley rat at 100 mg/kg using crystalline solid form of sample by HPLC-MS/MS analysis; format: ADME, organism-based; conditions: in vivo
[9] = Dose normalized AUC in Sprague-Dawley rat at 100 mg/kg, po using amorphous spray dried dispersion sample by HPLC-MS/MS analysis; format: ADME, organism-based; conditions: in vivo
[10] = Oral bioavailability in Sprague-Dawley rat at 100 mg/kg using amorphous spray dried dispersion sample by HPLC-MS/MS analysis; format: ADME, organism-based; conditions: in vivo
[11] = test system: Rattus norvegicus; assay: Ratio of dose normalized AUC in Sprague-Dawley rat at 100 mg/kg, po using amorphous spray dried dispersion sample to dose normalized AUC in Sprague-Dawley rat at 100 mg/kg, po using crystalline solid form of sample; format: ADME, organism-based; conditions: in vivo
[12] = Dose normalized AUC in Sprague-Dawley rat at 1 mg/kg, po by HPLC-MS/MS analysis; format: ADME, organism-based; conditions: in vivo
[13] = Ratio of unbound clearance in Sprague-Dawley rat at 1 mg/kg, iv administered as 30 mins infusion to unbound clearance in dog; format: ADME, organism-based; conditions: in vivo, 0.5 h
[14] = Drug metabolism in rat hepatocytes assessed as GSH-mediated sulfonamide cleavage by measuring 2-amino-5-[[2-(carboxymethylamino)-1-[[2-cyano-4-(trifluoromethyl)phenyl]sulfanylmethyl]-2-oxo-ethyl]amino]-5-oxo-pentanoic acid formation by LC-MS/MS analysis; format: ADME, cell-based, Hepatocyte
[15] = Drug metabolism in rat hepatocytes assessed as rearomatization/conjugation by measuring metabolite formation by LC-MS/MS analysis; format: ADME, cell-based, Hepatocyte
[16] = Drug metabolism in rat hepatocytes assessed as oxidation of arene oxide metabolite by measuring 2-[(3R,4S)-4-(4-cyano-3-fluoro-phenoxy)-3-hydroxy-3-(hydroxymethyl)pyrrolidin-1-yl]sulfonyl-3,4-dihydroxy-5-(trifluoromethyl)benzonitrile formation by LC-MS/MS analysis; format: ADME, cell-based, Hepatocyte
[17] = Mean residence time in dog; format: ADME, Canis lupus familiaris; conditions: in vivo
[18] = Clearance in dog; format: ADME, Canis lupus familiaris; conditions: in vivo
[19] = target: T1, Transient receptor potential cation channel subfamily V member 4; assay: Antagonist activity at BacMam virus expressing human TRPV4 transduced in BHK/AC9 or HEK MSR2 cells assessed as inhibition of GSK634775-induced Ca2+ flux preincubated for 10 mins followed by agonist addition by Fluo-4 AM dye based FLIPR assay; format: cell-based
[20] = Lipophilicity, log D of the compound at pH 7.4 by chromatographic method; format: physicochemical; conditions: buffer
[21] = MRT in Sprague-Dawley rat at 1 mg/kg, iv administered as 30 mins infusion by HPLC-MS/MS analysis; format: ADME, organism-based; conditions: in vivo
[22] = Clearance in Sprague-Dawley rat at 1 mg/kg, iv administered as 30 mins infusion by HPLC-MS/MS analysis; format: ADME, organism-based; conditions: in vivo
[23] = Oral bioavailability in Sprague-Dawley rat at 1 to 2 mg/kg by HPLC-MS/MS analysis; format: ADME, organism-based; conditions: in vivo
[24] = Protein binding in rat plasma assessed as unbound fraction; format: ADME, cell-free
[25] = Unbound clearance in Sprague-Dawley rat at 1 mg/kg, iv administered as 30 mins infusion by HPLC-MS/MS analysis; format: ADME, organism-based; conditions: in vivo, 0.5 h
[26] = Oral bioavailability in Sprague-Dawley rat at 1 mg/kg by HPLC-MS/MS analysis; format: ADME, organism-based; conditions: in vivo
[27] = Apparent permeability in dog MDCK cells; format: ADME, cell-based, Canis lupus familiaris
[28] = Volume of distribution at steady state in dog; format: ADME, Canis lupus familiaris; conditions: in vivo, read-out: Vdss
[29] = Oral bioavailability in dog; format: ADME, organism-based, Canis lupus familiaris; conditions: in vivo
[30] = Protein binding in dog plasma assessed as unbound fraction; format: ADME, cell-free, Canis lupus familiaris
[31] = Unbound clearance in dog; format: ADME, Canis lupus familiaris; conditions: in vivo
[32] = Unbound volume of distribution at steady state in dog; format: ADME, Canis lupus familiaris; conditions: in vivo
[33] = target: Voltage-gated inwardly rectifying potassium channel KCNH2 (Homo sapiens, UniProt Q12809); assay: Inhibition of human ERG by electrophysiology
[34] = target: Cytochrome P450 3A4 (Homo sapiens, UniProt P08684); assay: Inhibition of CYP3A4 (unknown origin); format: ADME
[35] = Dose normalized AUC in Sprague-Dawley rat at 100 mg/kg, po by HPLC-MS/MS analysis; format: ADME, organism-based; conditions: in vivo
[36] = Oral bioavailability in Sprague-Dawley rat at 100 mg/kg by HPLC-MS/MS analysis; format: ADME, organism-based; conditions: in vivo
[37] = Dose normalized AUC in Sprague-Dawley rat at 2 mg/kg, po by HPLC-MS/MS analysis; format: ADME, organism-based; conditions: in vivo

T1 sequence (Q9HBA0 whole entry): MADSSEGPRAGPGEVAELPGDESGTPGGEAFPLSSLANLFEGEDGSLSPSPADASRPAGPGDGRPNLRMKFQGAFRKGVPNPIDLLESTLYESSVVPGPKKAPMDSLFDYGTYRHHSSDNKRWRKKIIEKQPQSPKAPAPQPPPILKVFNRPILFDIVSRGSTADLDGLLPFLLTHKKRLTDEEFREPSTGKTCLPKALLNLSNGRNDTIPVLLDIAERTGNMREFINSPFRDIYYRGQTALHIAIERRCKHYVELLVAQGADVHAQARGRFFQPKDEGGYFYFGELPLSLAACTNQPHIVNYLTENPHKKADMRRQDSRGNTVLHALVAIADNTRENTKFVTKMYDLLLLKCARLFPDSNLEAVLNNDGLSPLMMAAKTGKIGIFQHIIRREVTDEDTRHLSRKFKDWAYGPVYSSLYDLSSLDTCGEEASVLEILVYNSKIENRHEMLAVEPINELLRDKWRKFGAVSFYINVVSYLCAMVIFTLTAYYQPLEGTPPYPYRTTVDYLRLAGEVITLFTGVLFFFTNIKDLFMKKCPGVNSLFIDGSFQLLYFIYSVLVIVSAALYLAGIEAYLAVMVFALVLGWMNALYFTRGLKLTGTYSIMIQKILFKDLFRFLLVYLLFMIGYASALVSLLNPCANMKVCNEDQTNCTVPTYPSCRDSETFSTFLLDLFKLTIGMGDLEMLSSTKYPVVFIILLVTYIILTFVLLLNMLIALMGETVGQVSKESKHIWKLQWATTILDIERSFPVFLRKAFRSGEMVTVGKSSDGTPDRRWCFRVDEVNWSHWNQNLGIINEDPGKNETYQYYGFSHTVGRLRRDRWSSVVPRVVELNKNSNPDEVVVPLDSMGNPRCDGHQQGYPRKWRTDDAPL
Cytochrome P450 3A4, sequence (P08684 whole entry): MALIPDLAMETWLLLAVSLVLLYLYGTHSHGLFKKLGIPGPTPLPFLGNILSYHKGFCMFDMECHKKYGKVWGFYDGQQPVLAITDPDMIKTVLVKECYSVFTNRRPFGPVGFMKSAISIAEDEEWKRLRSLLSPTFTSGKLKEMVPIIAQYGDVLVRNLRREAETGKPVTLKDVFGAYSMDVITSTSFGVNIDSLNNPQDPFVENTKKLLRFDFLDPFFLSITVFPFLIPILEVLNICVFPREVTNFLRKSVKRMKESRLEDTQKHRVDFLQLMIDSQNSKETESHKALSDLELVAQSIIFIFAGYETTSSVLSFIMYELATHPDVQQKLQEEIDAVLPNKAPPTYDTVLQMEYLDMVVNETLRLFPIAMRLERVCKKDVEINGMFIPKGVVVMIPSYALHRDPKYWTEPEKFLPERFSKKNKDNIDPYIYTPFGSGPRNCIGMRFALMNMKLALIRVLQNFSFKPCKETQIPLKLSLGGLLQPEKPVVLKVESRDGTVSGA
Voltage-gated inwardly rectifying potassium channel KCNH2, sequence (Q12809 whole entry): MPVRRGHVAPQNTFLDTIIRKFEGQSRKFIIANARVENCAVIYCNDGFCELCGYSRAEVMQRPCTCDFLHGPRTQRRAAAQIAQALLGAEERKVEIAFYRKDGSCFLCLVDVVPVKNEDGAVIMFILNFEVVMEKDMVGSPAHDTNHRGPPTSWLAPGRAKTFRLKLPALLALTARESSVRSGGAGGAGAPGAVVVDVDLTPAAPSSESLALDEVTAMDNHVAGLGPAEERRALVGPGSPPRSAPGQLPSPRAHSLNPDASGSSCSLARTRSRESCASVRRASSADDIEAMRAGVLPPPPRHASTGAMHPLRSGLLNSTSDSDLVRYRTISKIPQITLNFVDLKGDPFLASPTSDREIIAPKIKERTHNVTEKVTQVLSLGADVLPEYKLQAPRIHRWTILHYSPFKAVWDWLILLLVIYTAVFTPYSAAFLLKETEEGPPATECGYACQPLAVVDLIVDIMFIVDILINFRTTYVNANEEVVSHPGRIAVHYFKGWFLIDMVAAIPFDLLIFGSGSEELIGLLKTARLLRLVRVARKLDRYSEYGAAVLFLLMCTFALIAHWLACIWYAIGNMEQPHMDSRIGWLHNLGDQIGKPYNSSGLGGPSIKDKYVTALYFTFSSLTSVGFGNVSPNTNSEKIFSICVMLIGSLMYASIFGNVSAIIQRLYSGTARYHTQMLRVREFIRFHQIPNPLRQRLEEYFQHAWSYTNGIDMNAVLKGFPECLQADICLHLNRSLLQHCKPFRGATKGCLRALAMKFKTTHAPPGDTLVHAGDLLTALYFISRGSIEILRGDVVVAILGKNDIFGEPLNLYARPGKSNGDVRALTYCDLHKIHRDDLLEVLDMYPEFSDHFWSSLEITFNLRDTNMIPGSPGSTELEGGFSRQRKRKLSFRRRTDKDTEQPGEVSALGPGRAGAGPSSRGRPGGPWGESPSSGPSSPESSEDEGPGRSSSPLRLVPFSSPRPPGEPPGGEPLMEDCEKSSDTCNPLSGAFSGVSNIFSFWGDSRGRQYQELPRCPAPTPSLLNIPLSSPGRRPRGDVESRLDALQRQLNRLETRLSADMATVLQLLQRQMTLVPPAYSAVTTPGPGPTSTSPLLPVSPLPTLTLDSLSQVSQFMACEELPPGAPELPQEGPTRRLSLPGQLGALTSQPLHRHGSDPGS

| Compound | solubility at 4 h [2] [µg/mL] | Vd [3] [L/kg] | Vduss [4] [L/kg] | IC50 [19] [nM] | chromatographic logD [20] | MRT [21] [h] | clearance [22] [mL/min/kg] | bioavailability [23] [%] | fraction unbound [24] | CL free [25] [mL/min/kg] | further results |
| --- | --- | --- | --- | --- | --- | --- | --- | --- | --- | --- | --- |
| CC(C)Nc1nc2c(C(=O)N(C)C)c(Cl)c(Cl)cc2n1C1CCN(c2ccc(C(C)(C)C#N)cc2)CC1 | – | – | – | – | – | – | – | – | – | – | IC50 [1]: 32 nM |
| N#Cc1ccc(O[C@H]2CN(S(=O)(=O)c3ccc(Cl)cc3Cl)C[C@@]2(O)CO)cc1F | 19 (≈ 41.2 µM) | 3.2 | 54 | – | – | – | – | – | – | – | Ratio [5]: 15; fAUC [6]: 240 ng·h/mL |
| N#Cc1ccc(O[C@H]2CN(S(=O)(=O)c3ccc(C(F)(F)F)cc3C#N)C[C@@]2(O)CO)cc1F | 25 (≈ 51.5 µM) | 3.6 | 73 | – | – | – | – | – | – | – | AUC/dose [7]: 0.0021 kg·h/L; F [8]: 1%; AUC/dose [9]: 0.038 kg·h/L; bioavailability [10]: 18%; Ratio AUC [11]: 18; AUC/dose [12]: 0.148 kg·h/L; Ratio [13]: 22; Drug metabolism [14]: Metabolite_Detected; Drug metabolism [15]: Metabolite_Detected; Drug metabolism [16]: Metabolite_Detected; Ratio [5]: 30 |
| N#Cc1ccc(O[C@H]2CN(S(=O)(=O)c3ccc(Cl)cn3)C[C@@]2(O)CO)cc1F | 26 (≈ 60.8 µM) | 2.2 | 12 | 34 | 3.4 | 1.2 | 30 | 100 | 0.18 | 170 | MRT [17]: 7.8 h; clearance [18]: 4.1 mL/min/kg; AUC/dose [7]: 0.043 kg·h/L; bioavailability ([8]; Sprague-Dawley): 7%; AUC/dose [9]: 0.5 kg·h/L; bioavailability [10]: 79%; AUC/dose [12]: 0.63 kg·h/L; bioavailability [26]: 100%; Papp [27]: 0.22 ×10⁻⁶ cm/s; Vd [28]: 1.9 L/kg; bioavailability [29]: 100%; fraction unbound [30]: 0.34; CL free [31]: 12 mL/min/kg; Vduss [32]: 5.5 L/kg; Ratio [13]: 14 |
| N#Cc1ccc(O[C@H]2CN(S(=O)(=O)c3ccc(Cl)cn3)C[C@]2(O)CO)cc1F | 130 (≈ 304 µM) | – | – | 190 | 3.5 | 3.3 | – | – | – | 150 | – |
| N#Cc1ccc(O[C@H]2CN(S(=O)(=O)c3ccc(C(F)(F)F)cc3)C[C@@]2(O)CO)cc1F | 5 (≈ 10.9 µM) | 5.9 | 180 | 100 | 4.5 | 2 | 50 | 100 | 0.033 | 1500 | – |
| N#Cc1ccc(O[C@H]2CN(S(=O)(=O)c3ccccc3C#N)C[C@@]2(O)CO)cc1F | 20 (≈ 47.9 µM) | 0.9 | 4.6 | 3.8 | 3.4 | 0.4 | 39 | 32 | 0.197 | 200 | – |
| N#Cc1ccc(O[C@H]2CN(S(=O)(=O)c3ccc(C(F)(F)F)nc3)C[C@@]2(O)CO)cc1F | 98 (≈ 212 µM) | 4.1 | 28 | 175 | 4.2 | 2.3 | 31 | 100 | 0.147 | 210 | Ratio [13]: 13 |
| N#Cc1ccc(S(=O)(=O)[C@H]2CN(S(=O)(=O)c3ccc(Cl)cn3)C[C@@]2(O)CO)cc1 | > 1000 | – | – | 3800 | 3.1 | – | – | – | – | – | – |
| N#Cc1ccc(O[C@H]2CN(S(=O)(=O)c3ccc(Cl)cc3)C[C@@]2(O)CO)cc1F | 44 (≈ 103 µM) | 6 | 170 | 53 | 4.1 | 1.9 | 54 | 83 | 0.035 | 1540 | – |
| N#Cc1ccc(S(=O)(=O)[C@H]2CN(S(=O)(=O)c3ccc(Cl)cc3Cl)C[C@@]2(O)CO)cc1 | 270 (≈ 549 µM) | – | 85 | 8 | 4.5 | – | – | 100 | 0.027 | 925 | – |
| N#Cc1ccc(O[C@H]2CN(S(=O)(=O)c3ccc(Cl)cn3)C[C@@]2(O)CN)cc1F | > 1000 | 6.7 | 47 | 12 | 2.5 | 2.5 | 45 | 26 | 0.14 | 320 | MRT [17]: 17 h; clearance [18]: 5.9 mL/min/kg; IC50 [33]: 20000 nM; IC50 [34]: 12000 nM; Papp [27]: 0.08 ×10⁻⁶ cm/s; AUC/dose [35]: 0.31 kg·h/L; bioavailability [36]: 87%; AUC/dose [37]: 0.092 kg·h/L; Vd [28]: 5.9 L/kg; bioavailability [29]: 84%; fraction unbound [30]: 0.32; CL free [31]: 18 mL/min/kg; Vduss [32]: 18 L/kg; Ratio [13]: 18 |
| N#Cc1ccc(O[C@H]2CN(S(=O)(=O)c3ccc(Cl)cc3Cl)C[C@@]2(O)CN)cc1F (racemic) | 78 (≈ 169 µM) | 7.7 | 210 | 3.5 | 4 | 3.2 | 40 | 24 | 0.036 | 1100 | IC50 [34]: 1600 nM; fAUC [6]: 170 ng·h/mL |
| N#Cc1ccc(O[C@H]2CN(S(=O)(=O)c3ccc(Cl)cc3Cl)CC2(O)CO)cc1F (single isomer, unassigned) | 88 (≈ 191 µM) | 13 | 330 | 33 | 4.9 | 4.8 | 54 | 100 | 0.04 | 1350 | – |
